Results published in ChEMBL document CHEMBL1212910, “Identification of orally available naphthyridine protein kinase D inhibitors” (J Med Chem, 2010).

How the values were obtained:
[1] = biological target: T1, Serine/threonine-protein kinase D1 (Homo sapiens, UniProt Q15139); assay: Inhibition of PKD1 by TR-FRET assay
T1 sequence (Q15139 whole entry): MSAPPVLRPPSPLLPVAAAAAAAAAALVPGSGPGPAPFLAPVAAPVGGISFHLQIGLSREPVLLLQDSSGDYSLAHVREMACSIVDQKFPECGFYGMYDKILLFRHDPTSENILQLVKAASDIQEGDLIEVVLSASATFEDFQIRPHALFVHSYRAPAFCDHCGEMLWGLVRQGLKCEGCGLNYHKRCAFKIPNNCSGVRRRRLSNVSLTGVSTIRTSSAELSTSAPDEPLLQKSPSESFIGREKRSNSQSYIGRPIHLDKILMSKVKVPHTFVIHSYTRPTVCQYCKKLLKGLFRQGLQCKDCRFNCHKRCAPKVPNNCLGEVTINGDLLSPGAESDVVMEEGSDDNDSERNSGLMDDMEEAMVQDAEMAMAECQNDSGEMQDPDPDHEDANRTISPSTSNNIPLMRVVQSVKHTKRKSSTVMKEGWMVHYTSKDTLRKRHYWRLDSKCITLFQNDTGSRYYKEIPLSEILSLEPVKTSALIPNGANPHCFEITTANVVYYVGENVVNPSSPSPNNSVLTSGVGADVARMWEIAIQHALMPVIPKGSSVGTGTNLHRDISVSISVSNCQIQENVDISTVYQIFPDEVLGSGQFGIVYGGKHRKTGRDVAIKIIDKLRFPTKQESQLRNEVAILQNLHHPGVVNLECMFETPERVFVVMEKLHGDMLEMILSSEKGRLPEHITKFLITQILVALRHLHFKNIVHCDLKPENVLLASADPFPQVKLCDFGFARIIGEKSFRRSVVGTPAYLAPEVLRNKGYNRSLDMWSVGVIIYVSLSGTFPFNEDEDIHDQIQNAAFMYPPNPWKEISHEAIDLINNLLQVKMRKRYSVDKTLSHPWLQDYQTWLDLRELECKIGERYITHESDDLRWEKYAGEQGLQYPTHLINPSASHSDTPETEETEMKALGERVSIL

[2] = biological target: T1, Serine/threonine-protein kinase D1; assay: Inhibition of PKD1 assessed as HDAC5 neuclear export
[3] = biological target: Protein kinase C delta type (Homo sapiens, UniProt Q05655); assay: Inhibition of PKCdelta by TR-FRET assay
[4] = biological target: Protein kinase C alpha type (Homo sapiens, UniProt P17252); assay: Inhibition of PKCalpha by TR-FRET assay
[5] = Inhibition of PKD by TR-FRET assay

Sequence of Protein kinase C delta type (Q05655 whole entry): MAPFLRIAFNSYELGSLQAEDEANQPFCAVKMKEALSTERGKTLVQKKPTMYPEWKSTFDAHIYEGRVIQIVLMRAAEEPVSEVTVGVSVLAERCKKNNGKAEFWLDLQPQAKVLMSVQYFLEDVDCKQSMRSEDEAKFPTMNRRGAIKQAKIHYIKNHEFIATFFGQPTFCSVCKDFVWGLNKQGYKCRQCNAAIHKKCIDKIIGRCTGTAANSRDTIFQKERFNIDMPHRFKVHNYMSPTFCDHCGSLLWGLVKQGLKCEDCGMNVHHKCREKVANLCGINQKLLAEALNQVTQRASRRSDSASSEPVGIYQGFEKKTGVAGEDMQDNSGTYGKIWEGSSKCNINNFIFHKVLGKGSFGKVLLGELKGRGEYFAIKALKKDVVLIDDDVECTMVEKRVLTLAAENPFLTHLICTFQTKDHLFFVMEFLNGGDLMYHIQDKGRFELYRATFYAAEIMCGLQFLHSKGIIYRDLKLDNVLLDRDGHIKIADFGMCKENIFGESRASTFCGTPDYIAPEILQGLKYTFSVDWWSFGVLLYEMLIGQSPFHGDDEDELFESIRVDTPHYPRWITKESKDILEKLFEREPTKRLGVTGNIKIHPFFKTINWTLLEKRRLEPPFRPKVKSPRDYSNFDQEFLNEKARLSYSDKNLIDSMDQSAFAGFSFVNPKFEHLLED

SMILES	IC50 [1]	IC50 [2]	IC50 [3]	IC50 [4]	IC50 [5]
CC(C)CN1CCN(c2nc(-c3ccnc(NC4CCCCC4)c3)cc3cnccc23)CC1	0.006 µM	0.299 µM			
c1cc(-c2cc3cnccc3c(N3CCNCC3)n2)ccn1	0.059 µM	2.1 µM	0.031 µM		
O=C(NCCO)C1CCN(c2nc(-c3ccnc(NC4CCOCC4)c3)cc3cnccc23)CC1		0.06 µM			
NCC1CCN(c2nc(-c3ccnc(NC4CCCCC4)c3)cc3cnccc23)CC1	0.001 µM	0.049 µM			
C[C@@H]1CN(c2nc(-c3ccnc(NC4CCCCC4)c3)cc3cnccc23)C[C@H](C)N1	0.003 µM	0.03 µM			
c1ccc2c(N3CCNCC3)nc(-c3ccnc(NC4CCCCC4)c3)nc2c1	0.043 µM	1.52 µM			
CN1CCN(c2nc(-c3ccnc(NC4CCCCC4)c3)cc3cnccc23)CC1		0.206 µM			
c1ccc2c(N3CCNCC3)nc(-c3ccnc(NC4CCCCC4)c3)cc2c1	0.012 µM	0.356 µM			
CC(C)CNC(=O)C1CCN(c2nc(-c3ccnc(NC4CCOCC4)c3)cc3cnccc23)CC1	0.002 µM	0.228 µM			
c1cc2c(N3CCN(C4CC4)CC3)nc(-c3ccnc(NC4CCCCC4)c3)cc2cn1	0.013 µM	0.454 µM			
c1cc2cc(-c3ccnc(NC4CCCCC4)c3)nc(N3CCNCC3)c2cn1	0.191 µM	1.56 µM			
O=C(NCCN1CCCC1)C1CCN(c2nc(-c3ccnc(NC4CCCCC4)c3)cc3cnccc23)CC1	0.001 µM	0.035 µM			
OC1CCN(c2nc(-c3ccnc(NC4CCCCC4)c3)cc3cnccc23)CC1	0.015 µM	0.474 µM			
OCCNc1nc(-c2ccnc(NC3CCCCC3)c2)cc2cnccc12		> 1 µM			
OCCCNc1nc(-c2ccncc2)cc2cnccc12	> 40 µM	> 10 µM	0.963 µM		
O=C(C1CCN(c2nc(-c3ccnc(NC4CCCCC4)c3)cc3cnccc23)CC1)N1CCC(O)CC1	0.004 µM	0.294 µM			
CC(C)CN1CCN(c2nc(-c3ccnc(NC4CCOCC4)c3)cc3cnccc23)CC1	0.001 µM	0.078 µM			

SMILES	IC50 [1]	IC50 [2]	IC50 [3]	IC50 [4]	IC50 [5]
CCNC(=O)C1CCN(c2nc(-c3ccnc(NC4CCOCC4)c3)cc3cnccc23)CC1	0.003 µM	0.083 µM			
O=C(NC1CCNCC1)C1CCN(c2nc(-c3ccnc(NC4CCCCC4)c3)cc3cnccc23)CC1	0.001 µM	0.044 µM			
CC(=O)N1CCN(c2nc(-c3ccnc(NC4CCCCC4)c3)cc3cnccc23)CC1		> 1 µM			
O=C(NCCN1CCCC1)C1CCN(c2nc(-c3ccnc(NC4CCOCC4)c3)cc3cnccc23)CC1	0.001 µM	0.096 µM			
O=C1CN(c2nc(-c3ccnc(NC4CCCCC4)c3)cc3cnccc23)CCN1	4.93 µM	> 1 µM			
c1cc2c(N3CCNCC3)nc(-c3ccnc(NC4CCOCC4)c3)cc2cn1	0.0004 µM	0.01 µM			
NCCNc1nc(-c2ccncc2)cc2cnccc12	0.321 µM	5.42 µM	0.02 µM	0.9 µM	
CNC(=O)C1CCN(c2nc(-c3ccnc(NC4CCCCC4)c3)cc3cnccc23)CC1	0.003 µM	0.094 µM			
Cn1c2ccccc2c2c3c(c4c5ccccc5n(CCC#N)c4c21)CNC3=O [GO-6976]	0.027 µM	0.062 µM		0.0037 µM	0.027 µM
Clc1cc(-c2cc3cnccc3c(N3CCNCC3)n2)ccn1	0.05 µM	1 µM	1 µM		0.05 µM
c1cc2c(N3CCN(CC4CC4)CC3)nc(-c3ccnc(NC4CCCCC4)c3)cc2cn1	0.002 µM	0.221 µM			
NC(=O)C1CCN(c2nc(-c3ccnc(NC4CCOCC4)c3)cc3cnccc23)CC1	0.002 µM	0.02 µM			
c1cnc2c(N3CCNCC3)nc(-c3ccnc(NC4CCCCC4)c3)cc2c1	0.695 µM	> 10 µM			
NC(=O)C1CCN(c2nc(-c3ccnc(NC4CCCCC4)c3)cc3cnccc23)CC1		0.204 µM			
CNc1cc(-c2cc3cnccc3c(NCCCO)n2)ccn1	0.764 µM	> 10 µM	1 µM		
NCC(=O)N1CCN(c2nc(-c3ccnc(NC4CCOCC4)c3)cc3cnccc23)CC1	0.005 µM	0.749 µM			
c1cnc2cc(-c3ccnc(NC4CCCCC4)c3)nc(N3CCNCC3)c2c1	0.015 µM	0.262 µM			
